According to US20140066394A1, “Substituted 6-(Benzylamino) Purine Riboside Derivatives, Use Thereof and Compositions Containing These Derivatives” (Biopatterns, S.R.O, priority 2009, published 2014):

Columns and labels:
neutrophils = assay: Neutrophil adhesion, rolling and migration under flow over TNF primed HUVEC; format: cell-based, human
Procedure: Neutrophils were introduced into a flow based cell adhesion instrument at 5×10^6 cells/ml in medium containing 50 or 100 μM of compound 10. The capillary system is lined with TNF-primed HUVEC and cell adhesion, rolling and transmigration is monitored by time-lapse video microscopy. Data are expressed as cells adhered to HUVEC per mm^2, per 10^6 cells (left panel) or % of cells rolling or migrated (right panel). LGR 1406 (N-5-(2-aminocyclohexyl)-N-7-benzyl-3-isopropyl-1(2)H-pyrazolo[4,3-d]pyrimidine-5,7-diamine, Sroka et al. Mol Pharmacol. 2010; 77(2):255-61) was used as a negative control. Data are mean±SD of 3 separate experiments.
LGR 1406 as a negative control.
The ability of neutrophils to adhere to vascular endothelium and migrate from the blood into tissue, is the first step in the inflammatory process. Interference with this process would also result in suppression of inflammation. Neutrophils were flowed over TNF primed endothelial cells (HUVEC) lining a capillary based migration system, at flows rates and pressures mimicking the in vivo vasculature (see for detailed description of apparatus). Cells were recorded using time-lapse video microscopy and the numbers of rolling, adhered and transmigrated cells were enumerated over a 20 minute period. In test incubations the neutrophils and HUVEC were pre-treated with compound 10 at 50 and 100 μM and the compound was also present in the medium in which neutrophils were suspended.

[1] = tested on: Human T-lymphoblastic leukemia cell line CEM; assay: In vitro cytotoxicity, Calcein AM assay, CEM; format: cell-based; conditions: Homo sapiens, 72 hours
From the text: Low cytotoxicity of the compounds is the major property determining the cosmetic use. One of the parameters used, as the basis for cytotoxicity assays, is the metabolic activity of viable cells. For example, a microtiter assay, which uses the Calcein AM, is now widely used to quantitate cell proliferation and cytotoxicity. For instance, this assay is used in drug screening programs and in chemosensitivity testing. Because only metabolically active cells cleave Calcein AM, these assays detect viable cells exclusively. The quantity of […] Calcein AM corresponds to the number of vital cells in the culture.
Human T-lymphoblastic leukemia cell line CEM; promyelocytic HL-60 and monocytic U937 leukemias; breast carcinoma cell lines MCF-7, BT549, MDA-MB-231; glioblastoma U87MG cells; cervical carcinoma cells HELA; sarcoma cells U2OS and Saos2; hepatocellular carcinoma HepG2; mouse fibroblasts NIH3T3; mouse immortalized bone marrow macrophages B2.4 and B10A.4; P388D1 and L1210 leukemia; B16 and B16F10 melanomas; human osteosarcoma HOS; human myeloid leukemia K-562; human skin melanoma G-361 were used for routine screening of compounds. The cells were maintained in Nunc/Corning 80 cm^2 plastic tissue culture flasks and cultured in cell culture medium (DMEM with 5 g/l glucose, 2 mM glutamine, 100 U/mL penicillin, 100 μg/mL streptomycin, 10% fetal calf serum and sodium bicarbonate).
The cell suspensions that were prepared and diluted according to the particular cell type and the expected target cell density (2.500-30.000 cells per well based on cell growth characteristics) were added by pipette ([…]) into 96/well microtiter plates. Inoculates were allowed a pre-incubation period of 24 hours at 37° C. and 5% CO2 for stabilisation. Four-fold dilutions of the intended test concentration were added at time zero in 20 μl aliquots to the microtiter plate wells. Usually, the compound tested was evaluated at six 4-fold dilutions. In routine testing, the highest well concentration was 100 μM, but it can be the matter of change dependent on the agent. All drug concentrations were examined in duplicates. Incubations of cells with the tested compounds lasted for 72 hours at 37° C., in 5% CO2 atmosphere and 100% humidity. At the end of the incubation period, the cells were assayed by using Calcein AM. Ten microliters of the stock solution were pipetted into each well and incubated for 1 hour. Fluorescence (FD) was measured with the Labsystem FIA Reader Fluoroscan Ascent (UK). The tumour cell survival (GI50) was calculated using the following equitation: TCS=(FDdrug exposed well/mean FDeontrol wells)×100%. The GI50 value, the drug concentration lethal to 50% of the tumour cells, was calculated from the obtained dose response curves.
Zero cytotoxicity of the novel compounds is the basic prerequisite for agricultural and tumor-unrelated applications. The cytoxicity of the novel compounds was tested on a panel of cell lines of different histogenetic and species origin (Table 9). We show herein that equal activities were found in all tumour cell lines tested, however, the non-malignant cells, e.g. NIH3T3 fibroblasts and normal human lymphocytes, were resistant to 2,6-disubstituted purine ribosides induced cytotoxicity. The compounds listed in Tab. 9 can be divided into 2 groups. The first group contains “classical cytokinins” represented by 6-substituted purine ribosides (which are known in the prior art). The second group contains the novel 2,6-disubstituted derivatives of these compounds. […] GI50 for NIH3T3 fibroblasts and normal human lymphocytes was always higher than 100 μM. The novel derivatives show no toxicity to normal and tumour cells in concentrations about 100 μM and thus are more suitable for agricultural applications than “classical cytokinins” (6-substituted purine riboside derivatives).

[2] = compound at 50 and 100 μM, 20 minute period

**Q.** For `COc1cccc(CNc2nc(Cl)nc3c2ncn3C2OC(CO)C(O)C2O)c1O` (stereo not shown) [Compound 10, 2-Chloro-6-(2-hydroxy-3-methoxybenzylamino)purine riboside], which neutrophil rolling velocity (neutrophils; FIG. 7, LGR 1406 as negative control) is on record?
**A.** positive effects

**Q.** What about the “number of cells that adhered and transmigrated through the endothelial layer” value (neutrophils; [2]) of the same compound?
**A.** reduced the number of cells that adhered and transmigrated

**Q.** What about the “number of cells that rolled over the endothelium” value (neutrophils; [2]) of the same compound?
**A.** increased the ones that rolled over the endothelium

**Q.** What about the GI50 [1] of the same compound?
**A.** > 100 µM
